Assay results as given in patent publication US20210015884A1 (priority 2018, published 2021).

Test system: m^6A levels in viral RNA
Assay type: cell-based

SMILES	total m^6A levels in viral RNA
Nc1nccc2c1ncn2[C@@H]1O[C@H](CO)[C@@H](O)[C@H]1O [3DZA, 3-Deazaadenosine]	reduction of m^6A
Cc1ccc(Cl)c(Nc2ccccc2C(=O)O)c1Cl [MA, meclofenamic acid]	increase of m^6A
